Read-outs that look alike come from different tables or passages of the source.
Biological target: human SSTR2 (Homo sapiens (Human), UniProt P30874)
Test: Human SSTR2 intracellular cAMP functional assay for agonists (HTRF)
Assay type: cell-based
Method in brief: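 Cells bearing human SSTR2 exposed to compound for 20 minutes at 37 °C; after lysis, cAMP measured by time-resolved fluorescence (HTRF) and converted via a standard curve. EC50 calculated from cAMP versus compound concentration.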

[1] = CHO-K1 cells stably expressing human SSTR2, NKH477-stimulated cAMP, read-out: EC50 (inhibition of cAMP activities via human SST2R)

human SSTR2, sequence (P30874 whole entry): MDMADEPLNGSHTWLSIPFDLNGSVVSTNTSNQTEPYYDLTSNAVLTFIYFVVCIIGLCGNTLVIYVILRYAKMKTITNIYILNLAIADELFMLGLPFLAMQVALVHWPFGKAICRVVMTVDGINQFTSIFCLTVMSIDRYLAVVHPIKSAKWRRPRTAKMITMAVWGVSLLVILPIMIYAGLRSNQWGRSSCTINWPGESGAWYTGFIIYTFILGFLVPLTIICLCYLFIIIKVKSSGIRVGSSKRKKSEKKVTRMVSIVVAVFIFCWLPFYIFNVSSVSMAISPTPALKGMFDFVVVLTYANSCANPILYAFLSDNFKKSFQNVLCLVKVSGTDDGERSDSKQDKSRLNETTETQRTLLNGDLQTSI

SMILES	EC50 [1] [nM]	EC50 [nM]
COC(=O)Nc1c(F)cc(F)cc1-c1ccc2ncc(-c3cc(C)cc(F)c3)c(N3CCC(N)CC3)c2c1 [2-197, methyl N-{2-[4-(4-aminopiperidin-1-yl)-3-(3-fluoro-5-methylphenyl)quinolin-6-yl]-4,6-difluorophenyl}carbamate]	< 10	–
CON(C)C(=O)Nc1c(F)cc(F)cc1-c1ccc2ncc(-c3cc(C)cc(F)c3)c(N3CCC(N)CC3)c2c1 [2-198, 1-{2-[4-(4-aminopiperidin-1-yl)-3-(3-fluoro-5-methylphenyl)quinolin-6-yl]-4,6-difluorophenyl}-3-methoxy-3-methylurea]	< 10	–
Cc1cc(F)cc(-c2cnc3ccc(-c4cc(F)cc(F)c4NC(=O)N(C)C)cc3c2N2CCC(N)CC2)c1 [2-199, 1-{2-[4-(4-aminopiperidin-1-yl)-3-(3-fluoro-5-methylphenyl)quinolin-6-yl]-4,6-difluorophenyl}-3,3-dimethylurea]	< 10	–
NC1CCN(c2c(-c3cc(F)cc(F)c3)cnc3ccc(-c4cccc(C=NO)n4)cc23)CC1 [2-200, 1-[3-(3,5-difluorophenyl)-6-{6-[(hydroxyimino)methyl]pyridin-2-yl}quinolin-4-yl]piperidin-4-amine]	< 10	–
Cc1ccc(F)c(C=NO)c1-c1ccc2ncc(-c3cc(F)cc(F)c3)c(N3CCC(N)CC3)c2c1 [2-202, 1-[3-(3,5-difluorophenyl)-6-{3-fluoro-2-[(hydroxyimino)methyl]-6-methylphenyl}quinolin-4-yl]piperidin-4-amine]	< 10	–
NC1CCN(c2c(-c3cc(F)cc(F)c3)cnc3ccc(-c4ccnc(C=NO)c4)cc23)CC1 [2-203, 1-[3-(3,5-difluorophenyl)-6-{2-[(hydroxyimino)methyl]pyridin-4-yl}quinolin-4-yl]piperidin-4-amine]	< 10	–
COCCOc1c(C#N)cc(F)cc1-c1ccc2ncc(-c3cc(C)cc(F)c3)c(N3CCC(N)CC3)c2c1 [2-204, 3-[4-(4-aminopiperidin-1-yl)-3-(3-fluoro-5-methylphenyl)quinolin-6-yl]-5-fluoro-2-(2-methoxyethoxy)benzonitrile]	< 10	–
COC(=O)Nc1c(C#N)cc(F)c(F)c1-c1ccc2ncc(-c3cc(C)cc(F)c3)c(N3CCC(N)CC3)c2c1 [2-205]	< 10	–
CON(C)C(=O)Nc1c(C#N)cc(F)c(F)c1-c1ccc2ncc(-c3cc(C)cc(F)c3)c(N3CCC(N)CC3)c2c1 [2-206, 1-{2-[4-(4-aminopiperidin-1-yl)-3-(3-fluoro-5-methylphenyl)quinolin-6-yl]-6-cyano-3,4-difluorophenyl}-3-methoxy-3-methylurea]	< 10	–
COC(=O)Nc1c(F)cccc1-c1ccc2ncc(-c3cc(C)cc(F)c3)c(N3CCC(N)CC3)c2c1 [2-209, methyl N-{2-[4-(4-aminopiperidin-1-yl)-3-(3-fluoro-5-methylphenyl)quinolin-6-yl]-6-fluorophenyl}carbamate]	< 10	–
CON(C)C(=O)Nc1c(F)cccc1-c1ccc2ncc(-c3cc(C)cc(F)c3)c(N3CCC(N)CC3)c2c1 [2-210, 1-{2-[4-(4-aminopiperidin-1-yl)-3-(3-fluoro-5-methylphenyl)quinolin-6-yl]-6-fluorophenyl}-3-methoxy-3-methylurea]	< 10	–
Cc1cc(F)cc(-c2cnc3ccc(-c4cn(C)nc4N)cc3c2N2CCC(N)CC2)c1 [2-211, 1-[6-(3-amino-1-methyl-1H-pyrazol-4-yl)-3-(3-fluoro-5-methylphenyl)quinolin-4-yl]piperidin-4-amine]	< 10	–
CONC(=O)Nc1nn(C)cc1-c1ccc2ncc(-c3cc(C)cc(F)c3)c(N3CCC(N)CC3)c2c1 [2-212, 1-{4-[4-(4-aminopiperidin-1-yl)-3-(3-fluoro-5-methylphenyl)quinolin-6-yl]-1-methyl-1H-pyrazol-3-yl}-3-methoxyurea]	< 10	–
CON=Cc1cc(-c2ccc3ncc(-c4cc(C)cc(F)c4)c(N4CCC(N)CC4)c3c2)ccc1O [2-213, 4-[4-(4-aminopiperidin-1-yl)-3-(3-fluoro-5-methylphenyl)quinolin-6-yl]-2-[(methoxyimino)methyl]phenol]	–	10 to 100
COC(=O)Nc1nn(C)cc1-c1ccc2ncc(-c3cc(C)cc(F)c3)c(N3CCC(N)CC3)c2c1 [2-214, methyl N-{4-[4-(4-aminopiperidin-1-yl)-3-(3-fluoro-5-methylphenyl)quinolin-6-yl]-1-methyl-1H-pyrazol-3-yl}carbamate]	< 10	–
CONC(=O)Nc1nccc(C)c1-c1ccc2ncc(-c3cc(C)cc(F)c3)c(N3CCC(N)CC3)c2c1 [2-215, 1-{3-[4-(4-aminopiperidin-1-yl)-3-(3-fluoro-5-methylphenyl)quinolin-6-yl]-4-methylpyridin-2-yl}-3-methoxyurea]	–	10 to 100
Cc1cc(F)cc(-c2cnc3ccc(-c4cc(F)cc(F)c4NC(=O)NOC(C)C)cc3c2N2CCC(N)CC2)c1 [2-216, 1-{2-[4-(4-aminopiperidin-1-yl)-3-(3-fluoro-5-methylphenyl)quinolin-6-yl]-4,6-difluorophenyl}-3-(propan-2-yloxy)urea]	< 10	–
CONC(=O)Nc1ccc(C#N)cc1-c1ccc2ncc(-c3cc(C)cc(F)c3)c(N3CCC(N)CC3)c2c1 [2-222]	< 10	–
CONC(=O)Nc1cc(F)cc(-c2ccc3ncc(-c4cc(C)cc(F)c4)c(N4CCC(N)CC4)c3c2)c1 [2-223, 1-{3-[4-(4-aminopiperidin-1-yl)-3-(3-fluoro-5-methylphenyl)quinolin-6-yl]-5-fluorophenyl}-3-methoxyurea]	< 10	–
CONC(=O)Nc1ncccc1-c1ccc2ncc(-c3cc(C)cc(F)c3)c(N3CCC(N)CC3)c2c1 [2-226, 1-{3-[4-(4-aminopiperidin-1-yl)-3-(3-fluoro-5-methylphenyl)quinolin-6-yl]pyridin-2-yl}-3-methoxyurea]	< 10	–
CCONC(=O)Nc1c(F)cc(F)cc1-c1ccc2ncc(-c3cc(C)cc(F)c3)c(N3CCC(N)CC3)c2c1 [2-228, 1-{2-[4-(4-aminopiperidin-1-yl)-3-(3-fluoro-5-methylphenyl)quinolin-6-yl]-4,6-difluorophenyl}-3-ethoxyurea]	< 10	–
COCCNc1nn(C)cc1-c1ccc2ncc(-c3cc(C)cc(F)c3)c(N3CCC(N)CC3)c2c1 [2-229, 1-[3-(3-fluoro-5-methylphenyl)-6-{3-[(2-methoxyethyl)amino]-1-methyl-1H-pyrazol-4-yl}quinolin-4-yl]piperidin-4-amine]	< 10	–
COCC(=O)Nc1c(F)cc(F)cc1-c1ccc2ncc(-c3cc(C)cc(F)c3)c(N3CCC(N)CC3)c2c1 [2-230, N-{2-[4-(4-aminopiperidin-1-yl)-3-(3-fluoro-5-methylphenyl)quinolin-6-yl]-4,6-difluorophenyl}-2-methoxyacetamide]	< 10	–
N#CCOc1c(C#N)cccc1-c1ccc2ncc(-c3cc(F)cc(F)c3)c(N3CCC(N)CC3)c2c1 [2-231, 3-[4-(4-aminopiperidin-1-yl)-3-(3,5-difluorophenyl)quinolin-6-yl]-2-(cyanomethoxy)benzonitrile]	< 10	–
Cc1cc(F)cc(-c2cnc3ccc(-c4cc(F)cc(F)c4NC(=O)NOCC(F)(F)F)cc3c2N2CCC(N)CC2)c1 [2-233, 1-{2-[4-(4-aminopiperidin-1-yl)-3-(3-fluoro-5-methylphenyl)quinolin-6-yl]-4,6-difluorophenyl}-3-(2,2,2-trifluoroethoxy)urea]	< 10	–
